Data from patent US8759339B2, “Pyrrolo[2,1-c][1,4]naphthodiazepine linked piperazine compounds and a process for the preparation thereof” (Council of Scientific & Industrial Research, priority 2011, dated 2014).
Read-outs that look alike come from different tables or passages of the source.

Experiments:
[1] = system: A549 lung cancer cell line; test: In vitro anticancer activity, MTT assay; format: cell-based, human; conditions: for in-vitro cytotoxicity in lung cancer cell line (A549): result in words
Procedure: (§1) In vitro biological activity studies were carried out at the pharmacology division, IICT, Hyderabad. The compounds were evaluated for in vitro anticancer activity against eight tumour cell lines derived from […] cancer types (breast, lung, liver, skeletal, kidney, prostrate, small intestine) as shown in Table 2. For each compound, dose response curves for each cell line were measured at a minimum of five concentrations at 10 fold dilutions. A protocol of 48 h continuous drug exposure was used and a MTT assay was used to estimate cell viability or growth. The concentration causing 50% inhibition (IC50) compared with the control was calculated. Some of the compounds have been evaluated for their in vitro cytotoxicity in eight cell lines from seven human cancer types. The results are expressed as IC50 determined relative to that of untreated control cells (Table-2).

[2] = system: HEPG2 liver cancer cell line; test: In vitro anticancer activity, MTT assay; format: cell-based, human; conditions: for in-vitro cytotoxicity in liver cancer cell line (HEPG2): result in words
Procedure: as §1

[3] = system: MCF7 breast cancer cell line; test: In vitro anticancer activity, MTT assay; format: cell-based, human; conditions: for IC50: breast cancer cell line, MTT, 48 h continuous drug exposure; for in-vitro cytotoxicity in breast cancer cell line (MCF-7): result in words
Procedure: as §1

[4] = system: NCIH460 large cell lung cancer cell line; test: In vitro anticancer activity, MTT assay; format: cell-based, human; conditions: for IC50: large cell lung cancer cell line, MTT, 48 h continuous drug exposure; for in-vitro cytotoxicity in large cell lung cancer cell line (NCIH460): result in words
Procedure: as §1

[5] = system: PC-3 prostrate cancer cell line; test: In vitro anticancer activity, MTT assay; format: cell-based, human; conditions: for IC50: prostrate cancer cell line, MTT, 48 h continuous drug exposure; for in-vitro cytotoxicity in prostrate cancer cell line (PC-3): result in words
Procedure: as §1

[6] = system: calf thymus DNA (CT-DNA); test: Thermal denaturation studies with duplex-form calf thymus DNA; format: binding; conditions: [PND]/[DNA] molar ratio 1:5, CT-DNA 100 μM, ligand 20 μM, aqueous sodium phosphate buffer pH 7; for ΔTm after incubation at 37° C. for 0 hr: 0 hr at 37° C.; for ΔTm after incubation at 37° C. for 18 hrs: 18 hrs at 37° C.
Procedure: Compounds have been subjected to thermal denaturation studies with duplex-form calf thymus DNA (CT-DNA) using an modification of a reported procedure (Newman, M. S. Carcinog-compr. Surv. 1976, 1, 203; (b) Hecht, S. S.; Loy, M.; Hoffman, Carcinog-compr. Surv. 1976, 1, 325). Working solutions in aqueous buffer (10 mM NaH2PO4/Na2HPO4, 1 mM Na2EDTA, pH 7.00+0.01) containing CT-DNA (100 μm in phosphate) and the PND (pyrrolo naphtha diazepine) (20 μm) have been prepared by addition of concentrated PND (pyrrolo naphtha diazepine) solutions in DMSO to obtain a fixed [PND]/[DNA] molar ratio of 1:5. The DNA-PND (pyrrolo naphtha diazepine) solutions have been incubated at 37° C. for 0 and 18 h prior to analysis. Samples have been monitored at 260 nm using a Beckman DU-800 spectrophotometer fitted with high performance temperature controller, and heated at 1° C. min in the 40-110° C. range. DNA helix→coil transition temperatures (Tm) have been obtained from the maxima in the d(A260)/dT derivative plots. Drug-induced alterations in DNA melting behavior are given by: ΔTm=Tm(DNA+PND)−Tm(DNA alone), where the Tm value for the PND-free CT-DNA is 69.1±0.01.
The DNA binding activity for these novel substituted piperazine linked pyrrolo naphtho diazepine hybrids has been examined by thermal denaturation studies using calf thymus (CT) DNA. […] The data for some of the compounds are included in Table 1 for comparison.

[7] = system: L-6 skeletal cancer cell line; test: In vitro anticancer activity, MTT assay; format: cell-based; conditions: result in words
Procedure: as §1

[8] = In vitro anticancer activity, MTT assay; format: cell-based; conditions: kidney cancer cell line, MTT, 48 h continuous drug exposure
Procedure: as §1

[9] = system: COS-1 kidney cancer cell line; test: In vitro anticancer activity, MTT assay; format: cell-based; conditions: for IC50: COS-1, range over the listed compounds, exposure period of at least 48 hrs, read-out: IC50 against kidney cancer cell lines; for in-vitro cytotoxicity in kidney cancer cell line (COS-1): result in words
Procedure: as §1

[10] = system: L-6; test: In vitro anticancer activity, MTT assay; format: cell-based; conditions: skeletal cancer cell line; MTT, 48 h continuous drug exposure
Procedure: as §1

[11] = system: IEC-6 small intestine cell line; test: In vitro anticancer activity, MTT assay; format: cell-based; conditions: for in-vitro cytotoxicity in small intestine cancer cell line (IEC-6): result in words
Procedure: as §1

[12] = Homo sapiens, A549, lung cancer cell line, MTT, 48 h continuous drug exposure, read-out: IC50 A549
[13] = Homo sapiens, A549, range over the listed compounds, exposure period of at least 48 hrs, read-out: IC50 against lung cancer cell lines
[14] = Homo sapiens, HepG2, liver cancer cell line, MTT, 48 h continuous drug exposure, read-out: IC50 HEPG2
[15] = Homo sapiens, HepG2, range over the listed compounds, exposure period of at least 48 hrs, read-out: IC50 against liver cancer cell lines
[16] = IEC-6, range over the listed compounds, exposure period of at least 48 hrs, read-out: IC50 against small intestine cancer cell lines
[17] = IEC-6, small intestine cell line, MTT, 48 h continuous drug exposure, read-out: IC50 IEC-6
[18] = lung cancer cell line, MTT, 48 h continuous drug exposure, read-out: IC50 A549
[19] = liver cancer cell line, MTT, 48 h continuous drug exposure, read-out: IC50 HEPG2
[20] = small intestine cell line, MTT, 48 h continuous drug exposure, read-out: IC50 IEC-6

| Structure (SMILES) | IC50 [1, 12] | IC50 [1, 13] | in-vitro cytotoxicity in lung cancer cell line (A549) [1] | IC50 [2, 14] | IC50 [2, 15] | in-vitro cytotoxicity in liver cancer cell line (HEPG2) [2] | IC50 ([3]; Homo sapiens, MCF7) | in-vitro cytotoxicity in breast cancer cell line (MCF-7) [3] | IC50 ([4]; Homo sapiens, NCI-H460) | in-vitro cytotoxicity in large cell lung cancer cell line (NCIH460) [4] | IC50 ([5]; Homo sapiens) | in-vitro cytotoxicity in prostrate cancer cell line (PC-3) [5] | ΔTm after incubation at 37° C. for 0 hr [6] | ΔTm after incubation at 37° C. for 18 hrs [6] | in-vitro cytotoxicity in skeletal cancer cell line (L-6) [7] | IC50 [9] | IC50 [10] | IC50 [11, 16] | IC50 [11, 17] | in-vitro cytotoxicity in small intestine cancer cell line (IEC-6) [11] | also measured |
| --- | --- | --- | --- | --- | --- | --- | --- | --- | --- | --- | --- | --- | --- | --- | --- | --- | --- | --- | --- | --- | --- |
| COc1cc2cc3c(cc2cc1OCCN1CCN(c2ccccn2)CC1)C(=O)N1CCC[C@H]1C=N3 [23a, 9-Methoxy-8-(2-[4-(2-pyridyl)piperazino]ethoxy)-(13aS)-1,2,3,13a-tetrahydro-5H-pyrrolo[2,1-c][1,4]naphthodiazepin-5-one] | 1990 nM | 20 to 11900 nM | exhibiting in-vitro cytotoxicity | 40 nM | 20 to 7320 nM | exhibiting in-vitro cytotoxicity | 20 nM | exhibiting in-vitro cytotoxicity | 110 nM | exhibiting in-vitro cytotoxicity | 100 nM | exhibiting in-vitro cytotoxicity | 5.0 °C | 6.8 °C | exhibiting in-vitro cytotoxicity | 800 to 4320 nM | 740 nM | 10 to 5840 nM | 10 nM | exhibiting in-vitro cytotoxicity | IC50 ([8]; COS-1): 4320 nM; in-vitro cytotoxicity in kidney cancer cell line (COS-1) [9]: exhibiting in-vitro cytotoxicity |
| COc1cc2cc3c(cc2cc1OCCN1CCN(c2ccc(F)cc2)CC1)C(=O)N1CCC[C@H]1C=N3 [20a, 9-Methoxy-8-(2-[4-(4-fluorophenyl)piperazino]ethoxy)-(13aS)-1,2,3,13a-tetrahydro-5H-pyrrolo[2,1-c][1,4]naphthodiazepin-5-one] | 10600 nM | 20 to 11900 nM | exhibiting in-vitro cytotoxicity | 4030 nM | 20 to 7320 nM | exhibiting in-vitro cytotoxicity | 3990 nM | exhibiting in-vitro cytotoxicity | 990 nM | exhibiting in-vitro cytotoxicity | 4370 nM | exhibiting in-vitro cytotoxicity | 5.9 °C | 7.0 °C | exhibiting in-vitro cytotoxicity | 800 to 4320 nM | 6360 nM | 10 to 5840 nM | 5840 nM | exhibiting in-vitro cytotoxicity | – |
| COc1cc2cc3c(cc2cc1OCCN1CCN(C(C)=O)CC1)N=C[C@@H]1CCCN1C3=O [5a, 8-Methoxy-9-[2-(4-acetylpiperazino)ethoxy]-(13aS)-1,2,3,13a-tetrahydro-5H-pyrrolo[2,1-c][1,4]naphthodiazepin-5-one] | – | – | exhibiting in-vitro cytotoxicity | – | – | exhibiting in-vitro cytotoxicity | – | exhibiting in-vitro cytotoxicity | – | exhibiting in-vitro cytotoxicity | – | exhibiting in-vitro cytotoxicity | 5.5 °C | 7.1 °C | exhibiting in-vitro cytotoxicity | – | 2660 nM | – | – | – | IC50 [1, 18]: 660 nM; IC50 [2, 19]: 7320 nM; IC50 [3]: 2880 nM; IC50 [4]: 1680 nM; IC50 [5]: 13500 nM |
| COc1cc2c(cc1O)N=CC1CCCN1C2=O (centres unmarked) [DC-81, reference compound] | – | – | – | – | – | – | – | – | – | – | – | – | 0.3 °C | 0.7 °C | – | – | 27600 nM | – | – | – | IC50 [1, 18]: 17500 nM; IC50 [2, 19]: 5270 nM; IC50 [3]: 12600 nM; IC50 [4]: 8930 nM; IC50 [5]: 14200 nM; IC50 ([8]; read-out: IC50 COS-1): 32900 nM; IC50 [11, 20]: 15400 nM |
| COc1cc2cc3c(cc2cc1OCCN1CCN(c2ccccc2)CC1)N=C[C@@H]1CCCN1C3=O [8a, 8-Methoxy-9-[2-(4-phenylpiperazino)ethoxy]-(13aS)-1,2,3,13a-tetrahydro-5H-pyrrolo[2,1-c][1,4]naphthodiazepin-5-one] | – | – | exhibiting in-vitro cytotoxicity | – | – | exhibiting in-vitro cytotoxicity | – | exhibiting in-vitro cytotoxicity | – | exhibiting in-vitro cytotoxicity | – | exhibiting in-vitro cytotoxicity | 5.1 °C | 6.9 °C | exhibiting in-vitro cytotoxicity | – | 1010 nM | – | – | exhibiting in-vitro cytotoxicity | IC50 [1, 18]: 7420 nM; IC50 [2, 19]: 470 nM; IC50 [3]: 1500 nM; IC50 [4]: 430 nM; IC50 [5]: 1600 nM; IC50 ([8]; read-out: IC50 COS-1): 6390 nM; in-vitro cytotoxicity in kidney cancer cell line (COS-1) [9]: exhibiting in-vitro cytotoxicity; IC50 [11, 20]: 140 nM |
| COc1cc2cc3c(cc2cc1OCCN1CCN(c2ncccn2)CC1)C(=O)N1CCC[C@H]1C=N3 [24a, 9-Methoxy-8-(2-[4-(2-pyrimidinyl)piperazino]ethoxy)-(13aS)-1,2,3,13a-tetrahydro-5H-pyrrolo[2,1-c][1,4]naphthodiazepin-5-one] | 11900 nM | 20 to 11900 nM | exhibiting in-vitro cytotoxicity | 1040 nM | 20 to 7320 nM | exhibiting in-vitro cytotoxicity | 1970 nM | exhibiting in-vitro cytotoxicity | 2 nM | exhibiting in-vitro cytotoxicity | 10 nM | exhibiting in-vitro cytotoxicity | 4.9 °C | 6.5 °C | exhibiting in-vitro cytotoxicity | 800 to 4320 nM | 2210 nM | 10 to 5840 nM | 200 nM | exhibiting in-vitro cytotoxicity | – |
